Reference: ChEMBL document CHEMBL5291721, “A preclinical secondary pharmacology resource illuminates target-adverse drug reaction associations of marketed drugs” (Nat Commun, 2023)

Tests used:
[1] = molecular target: Gamma-aminobutyric acid type B receptor subunit 1 (Homo sapiens, UniProt Q9UBS5)
[2] = molecular target: 5-hydroxytryptamine receptor 5A (Homo sapiens, UniProt P47898)
[3] = molecular target: T1, Prostaglandin G/H synthase 1 (Rattus norvegicus, UniProt Q63921); format: functional
T1 sequence (Q63921 whole entry): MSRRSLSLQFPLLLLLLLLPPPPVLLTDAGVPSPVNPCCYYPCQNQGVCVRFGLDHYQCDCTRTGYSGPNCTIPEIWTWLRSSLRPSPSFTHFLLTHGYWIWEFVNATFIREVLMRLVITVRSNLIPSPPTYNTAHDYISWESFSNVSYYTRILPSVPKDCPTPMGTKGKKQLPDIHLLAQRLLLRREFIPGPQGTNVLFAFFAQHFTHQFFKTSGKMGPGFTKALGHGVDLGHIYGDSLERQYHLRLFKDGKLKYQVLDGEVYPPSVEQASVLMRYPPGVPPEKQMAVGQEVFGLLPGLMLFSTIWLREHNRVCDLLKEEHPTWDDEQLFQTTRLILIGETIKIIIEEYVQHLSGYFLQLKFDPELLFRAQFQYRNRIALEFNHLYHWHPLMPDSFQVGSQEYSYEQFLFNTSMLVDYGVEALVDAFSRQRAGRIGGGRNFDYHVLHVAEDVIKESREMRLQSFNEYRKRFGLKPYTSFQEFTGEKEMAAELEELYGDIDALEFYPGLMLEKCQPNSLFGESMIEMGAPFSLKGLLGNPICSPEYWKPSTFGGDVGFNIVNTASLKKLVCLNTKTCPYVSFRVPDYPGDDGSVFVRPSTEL

[4] = molecular target: T2, Alpha-2A adrenergic receptor (Homo sapiens, UniProt P08913)
T2 sequence (P08913 whole entry): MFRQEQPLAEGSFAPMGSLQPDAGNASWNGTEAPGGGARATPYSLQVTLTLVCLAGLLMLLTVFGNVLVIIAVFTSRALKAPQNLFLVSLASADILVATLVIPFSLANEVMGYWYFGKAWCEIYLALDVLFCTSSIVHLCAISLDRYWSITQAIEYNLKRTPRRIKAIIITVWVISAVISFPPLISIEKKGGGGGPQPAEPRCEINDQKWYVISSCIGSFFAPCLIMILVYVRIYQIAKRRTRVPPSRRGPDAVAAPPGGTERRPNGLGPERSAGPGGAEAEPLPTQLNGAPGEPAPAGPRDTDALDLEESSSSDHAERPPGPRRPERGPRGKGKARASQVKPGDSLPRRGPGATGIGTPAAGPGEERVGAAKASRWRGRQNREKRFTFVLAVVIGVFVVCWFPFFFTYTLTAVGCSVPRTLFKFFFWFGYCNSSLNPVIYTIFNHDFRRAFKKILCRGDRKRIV

[5] = molecular target: T3, 5-hydroxytryptamine receptor 1A (Homo sapiens, UniProt P08908)
T3 sequence (P08908 whole entry): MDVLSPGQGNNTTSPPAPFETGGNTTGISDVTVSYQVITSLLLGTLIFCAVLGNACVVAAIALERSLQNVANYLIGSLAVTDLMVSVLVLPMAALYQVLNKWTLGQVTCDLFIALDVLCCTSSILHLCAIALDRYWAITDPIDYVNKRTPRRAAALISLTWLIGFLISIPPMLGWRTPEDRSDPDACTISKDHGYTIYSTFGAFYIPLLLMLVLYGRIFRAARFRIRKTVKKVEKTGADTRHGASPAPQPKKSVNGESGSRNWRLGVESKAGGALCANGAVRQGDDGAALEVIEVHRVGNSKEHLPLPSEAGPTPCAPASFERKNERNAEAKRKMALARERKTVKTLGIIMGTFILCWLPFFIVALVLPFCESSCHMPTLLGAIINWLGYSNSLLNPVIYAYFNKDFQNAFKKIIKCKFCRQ

[6] = molecular target: T4, Peroxisome proliferator-activated receptor alpha (Homo sapiens, UniProt Q07869); format: functional
T4 sequence (Q07869 whole entry): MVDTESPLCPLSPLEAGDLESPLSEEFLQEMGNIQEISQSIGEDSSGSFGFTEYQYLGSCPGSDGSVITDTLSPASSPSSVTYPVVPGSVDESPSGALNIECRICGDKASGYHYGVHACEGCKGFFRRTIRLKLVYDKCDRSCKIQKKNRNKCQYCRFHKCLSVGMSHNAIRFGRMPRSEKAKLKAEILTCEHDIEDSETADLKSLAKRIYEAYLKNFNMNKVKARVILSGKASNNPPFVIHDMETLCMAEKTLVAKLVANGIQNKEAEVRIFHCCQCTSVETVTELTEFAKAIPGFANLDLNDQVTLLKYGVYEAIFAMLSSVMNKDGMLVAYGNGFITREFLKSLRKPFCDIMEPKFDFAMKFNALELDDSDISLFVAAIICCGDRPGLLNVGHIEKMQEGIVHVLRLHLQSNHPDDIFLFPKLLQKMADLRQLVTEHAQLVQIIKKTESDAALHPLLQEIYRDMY

[7] = molecular target: T5, Nuclear receptor subfamily 1 group I member 3 (Homo sapiens, UniProt Q14994); format: functional
T5 sequence (Q14994 whole entry): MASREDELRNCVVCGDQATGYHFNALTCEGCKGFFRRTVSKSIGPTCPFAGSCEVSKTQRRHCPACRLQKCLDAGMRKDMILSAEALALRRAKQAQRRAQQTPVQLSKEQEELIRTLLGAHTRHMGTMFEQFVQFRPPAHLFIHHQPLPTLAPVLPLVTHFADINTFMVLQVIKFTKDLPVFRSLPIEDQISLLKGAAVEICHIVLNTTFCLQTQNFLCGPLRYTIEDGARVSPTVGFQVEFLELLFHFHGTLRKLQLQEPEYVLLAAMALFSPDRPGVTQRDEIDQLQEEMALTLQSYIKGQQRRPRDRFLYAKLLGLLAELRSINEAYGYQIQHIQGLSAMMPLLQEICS

[8] = molecular target: T4, Peroxisome proliferator-activated receptor alpha; format: functional; remark: listed apart in the source
Further: assay procedure not described here.

Chain of Gamma-aminobutyric acid type B receptor subunit 1 (Q9UBS5 whole entry): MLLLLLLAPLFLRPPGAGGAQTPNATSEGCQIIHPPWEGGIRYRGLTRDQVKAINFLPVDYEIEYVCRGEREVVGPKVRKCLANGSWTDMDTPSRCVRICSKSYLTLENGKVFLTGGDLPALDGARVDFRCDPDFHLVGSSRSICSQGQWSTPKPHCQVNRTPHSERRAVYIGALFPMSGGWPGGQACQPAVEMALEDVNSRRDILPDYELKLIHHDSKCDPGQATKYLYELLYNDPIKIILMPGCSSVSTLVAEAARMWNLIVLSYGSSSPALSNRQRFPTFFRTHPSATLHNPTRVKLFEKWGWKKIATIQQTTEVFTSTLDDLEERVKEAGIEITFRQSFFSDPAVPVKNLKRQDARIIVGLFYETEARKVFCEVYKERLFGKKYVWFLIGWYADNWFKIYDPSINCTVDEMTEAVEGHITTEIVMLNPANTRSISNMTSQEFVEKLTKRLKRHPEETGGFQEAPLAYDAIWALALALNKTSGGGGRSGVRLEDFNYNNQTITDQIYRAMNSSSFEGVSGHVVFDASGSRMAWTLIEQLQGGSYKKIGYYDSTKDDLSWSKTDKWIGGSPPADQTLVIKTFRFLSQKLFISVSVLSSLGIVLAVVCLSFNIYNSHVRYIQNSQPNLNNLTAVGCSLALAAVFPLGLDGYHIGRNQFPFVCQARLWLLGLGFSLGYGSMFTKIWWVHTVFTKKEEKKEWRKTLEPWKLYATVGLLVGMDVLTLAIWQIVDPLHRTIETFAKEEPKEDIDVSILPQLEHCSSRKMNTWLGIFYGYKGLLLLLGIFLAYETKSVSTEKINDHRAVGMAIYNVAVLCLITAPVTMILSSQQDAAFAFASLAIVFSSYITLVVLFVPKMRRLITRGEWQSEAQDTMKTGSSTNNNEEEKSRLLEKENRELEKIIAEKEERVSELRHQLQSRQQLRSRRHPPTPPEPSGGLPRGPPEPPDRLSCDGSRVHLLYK
Chain of 5-hydroxytryptamine receptor 5A (P47898 whole entry): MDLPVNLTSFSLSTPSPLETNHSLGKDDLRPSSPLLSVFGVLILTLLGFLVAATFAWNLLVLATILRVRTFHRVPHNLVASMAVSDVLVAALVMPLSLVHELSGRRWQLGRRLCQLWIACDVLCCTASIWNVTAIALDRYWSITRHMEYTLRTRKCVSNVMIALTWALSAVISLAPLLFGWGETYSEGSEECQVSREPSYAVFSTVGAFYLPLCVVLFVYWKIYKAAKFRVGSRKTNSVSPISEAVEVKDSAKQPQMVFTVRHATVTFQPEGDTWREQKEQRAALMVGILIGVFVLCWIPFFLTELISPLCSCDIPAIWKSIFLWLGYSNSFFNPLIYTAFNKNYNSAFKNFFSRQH

## CCOC(=O)[C@H](CCc1ccccc1)N[C@@H](C)C(=O)N1Cc2ccccc2C[C@H]1C(=O)O
[1]
  AC50: > 10 µM
[2]
  AC50: > 10 µM

## CN(C)CCC=C1c2ccccc2CCc2ccccc21 [AMITRIPTYLINE]
[3]
  AC50: > 30 µM

## CN1CC2c3ccccc3Oc3ccc(Cl)cc3C2C1 (stereo not given) [ASENAPINE]
[4]
  AC50: 0.0137 µM

## CC(=O)Oc1ccccc1C(=O)O [ASPIRIN]
[4]
  AC50: > 30 µM
[1]
  AC50: > 10 µM
[5]
  AC50: > 30 µM

## CCN(CC)CCn1c(=O)c(Cc2ccc(OC)cc2)nc2ccccc21 [CAROVERINE]
[3]
  AC50: 15.9 µM

## CC(C)/N=c1\cc2n(-c3ccc(Cl)cc3)c3ccccc3nc-2cc1Nc1ccc(Cl)cc1 [CLOFAZIMINE]
[6]
  AC50: > 30 µM
[7]
  AC50: > 30 µM
[8]
  AC50: > 30 µM

## NCC1(CC(=O)O)CCCCC1 [GABAPENTIN]
[4]
  AC50: > 30 µM
[1]
  AC50: > 10 µM
[5]
  AC50: > 30 µM

## OCCOCCN1CCN(C(c2ccccc2)c2ccc(Cl)cc2)CC1 (stereo not given) [HYDROXYZINE]
[2]
  AC50: 0.28 µM

## CC(=O)SCC(Cc1ccccc1)C(=O)NCC(=O)OCc1ccccc1 (stereo not given) [RACECADOTRIL]
[6]
  AC50: > 30 µM
[8]
  AC50: 29 µM

## CCOc1ccccc1OCCN[C@H](C)Cc1ccc(OC)c(S(N)(=O)=O)c1 [TAMSULOSIN]
[4]
  AC50: 0.79 µM

## Cc1c(C)c2c(c(C)c1O)CCC(C)(COc1ccc(CC3SC(=O)NC3=O)cc1)O2 (stereo not given) [TROGLITAZONE]
[1]
  AC50: > 10 µM
[7]
  AC50: 3.4 µM
